Assay results reported in patent publication US10344019B2 (priority 2010, dated 2019).
Read-outs that look alike come from different tables or passages of the source.

What was measured:
Assay in all cases: microbe, parasite or virus in culture
Assay type in all cases: cell-based
[1] = tested on: HCV 1a RLuc cells (dicistronic genotype 1a H77 replicon, RLuc reporter); conditions: genotype 1a H77 replicon, read-out: 1a
Experimental: (§1) Evaluation of cell-based anti-HCV activity: Antiviral potency (EC50) was determined using a Renilla luciferase (RLuc)-based HCV replicon reporter assay. To perform the assay for genotype 1 and 2a JFH-1, HCV 1b RLuc cells (harboring a dicistronic genotype 1b Con1 replicon that encodes a RLuc reporter), or HCV 1a RLuc cells (harboring a dicistronic genotype 1a H77 replicon that encodes a RLuc reporter), or HCV 2a JFH-1 Rluc cells (harboring a dicistronic genotype 2a JFH-1 replicon that encodes a RLuc reporter) were dispensed into 384-well plates. To perform the assay for genotype 2a (with M31 present) or 2b, HCV 2a Rluc or 2b Rluc cells (both with M31 present) harboring a dicistronic NS5A chimeric genotype 2a JFH-1 replicon that encodes a RLuc reporter and either genotype 2a J6 strain NS5A gene or genotype 2b MD2b-1 NS5A gene (based on Los Alamos HCV database isolates, both with M31 present) respectively, were dispensed into 384-well plates. To perform the assay for genotype 3 and 4, HCV 3a RLuc or 4a Rluc cells harboring a dicistronic NS5A chimeric genotype 1b Con1 replicon that encodes a RLuc reporter and either a consensus genotype 3a NS5A gene or genotype 4a NS5A gene (based on Los Alamos HCV database isolates) respectively, were dispensed into 384-well plates. Compounds were re-suspended in DMSO at a concentration of 10 mM and serially diluted in DMSO either manually or using an automated pipeting instrument. Serially diluted compounds were mixed with cell culture media and added to the seeded cells. […] 72 hours later, cells were lysed and Renilla luciferase activity quantified as recommended by the manufacturer (Promega-Madison, Wis.). Non-linear regression was performed to calculate EC50 values.

[2] = tested on: HCV 1b RLuc cells (dicistronic genotype 1b Con1 replicon, RLuc reporter)
Experimental: as §1

[3] = tested on: HCV 2a JFH-1 Rluc cells (dicistronic genotype 2a JFH-1 replicon, RLuc reporter); conditions: genotype 2a JFH-1 replicon, read-out: 2a JFH
Experimental: as §1

[4] = tested on: HCV 3a RLuc cells (NS5A chimeric genotype 1b Con1 replicon with consensus genotype 3a NS5A gene)
Experimental: as §1

[5] = Hepatitis C virus, 72 h, Table 2, 72 hours
[6] = Hepatitis C virus, 72 h, read-out: 1b (nM)
[7] = Hepatitis C virus, read-out: 3a, Table 2, genotype 3a NS5A chimeric replicon
[8] = Hepatitis C virus, RLuc reporter
[9] = Hepatitis C virus, read-out: 1b (nM)
[10] = Hepatitis C virus, read-out: 3a, genotype 3a NS5A chimeric 1b Con1 replicon
[11] = read-out: 3a, genotype 3a NS5A chimeric 1b Con1 replicon
[12] = Hepatitis C virus, 72 h, Table 1, 72 hours

Compound | EC50 [1, 8] [nM] | EC50 [2, 9] [nM] | EC50 [3, 8] [nM] | EC50 [4, 10] [nM] | also measured
COC(=O)NC(C(=O)N1CC2(C[C@H]1c1nc3c([nH]1)-c1ccc(-c4ccc5c(ccc6nc([C@@H]7CCCN7C(=O)[C@@H](NC(=O)OC)C(C)C)[nH]c65)c4)cc1CC3)OCCO2)C1CCOCC1 (stereo partly shown) [Example 87] |  |  |  |  | EC50 [1, 5]: 0.001 to 0.999 nM; EC50 [2, 6]: 0.163 nM; EC50 [3, 5]: 0.001 to 0.999 nM; EC50 [4, 7]: 0.001 to 0.99 nM
COC(=O)N[C@H](C(=O)N1CCC[C@H]1c1ncc(-c2ccc3cc(-c4ccc(-c5cnc([C@@H]6C[C@@H](F)CN6C(=O)[C@H](NC(=O)OC)c6ccccc6)[nH]5)cc4)ccc3c2)[nH]1)C(C)C [Example 139] | 0.001 to 0.999 | 0.004 | 1 to 44 | 0.001 to 0.99 | 
COC(=O)N[C@H](C(=O)N1CCC[C@H]1c1ncc(-c2ccc3cc(-c4ccc(-c5cnc([C@@H]6C[C@H](C#N)CN6C(=O)[C@H](NC(=O)OC)c6ccccc6)[nH]5)cc4)ccc3c2)[nH]1)C(C)C [Example 124] | 0.001 to 0.999 | 0.011 | 0.001 to 0.999 | 0.001 to 0.99 | 
COC(=O)N[C@H](C(=O)N1CCC[C@H]1c1ncc(-c2ccc(-c3ccc4cc(-c5cnc([C@@H]6CCCN6C(=O)[C@@H](NC(=O)OC)C(C)C)[nH]5)ccc4c3)cc2)[nH]1)c1cccnc1 [Example 160] | 0.001 to 0.999 | 0.017 | 0.001 to 0.999 | 0.001 to 0.99 | 
COC(=O)N[C@H](C(=O)N1CCC[C@H]1c1ncc(-c2ccc(-c3ccc(-c4ccc(-c5cnc([C@@H]6CCCN6C(=O)[C@H](NC(=O)OC)c6ccccc6)[nH]5)cc4)cc3)cc2)[nH]1)C(C)C [Example 193] |  |  |  |  | EC50 ([1]; RLuc reporter): 0.001 to 0.999 nM; EC50 ([2]; read-out: 1b): 0.005 nM; EC50 ([3]; RLuc reporter): 0.001 to 0.999 nM; EC50 [4, 11]: 0.001 to 0.99 nM
COC(=O)N[C@@H](C)C(=O)N1CCC[C@H]1c1ncc(-c2ccc3cc(-c4ccc(-c5cnc([C@@H]6CCCN6C(=O)[C@H](NC(=O)OC)c6ccccc6)[nH]5)cc4)ccc3c2)[nH]1 [Example 164] | 0.001 to 0.999 | 0.01 | 0.001 to 0.999 | 0.001 to 0.99 | 
COC(=O)N[C@H](C(=O)N1CCC[C@H]1c1ncc(-c2ccc3cc(-c4ccc(-c5cnc([C@@H]6CC(=O)CN6C(=O)[C@@H](c6ccccc6)N(C)C)[nH]5)cc4)ccc3c2)[nH]1)C(C)C [Example 34] |  |  |  |  | EC50 [1, 5]: 0.001 to 0.999 nM; EC50 [2, 6]: 0.018 nM; EC50 [3, 5]: 0.001 to 0.999 nM; EC50 [4, 7]: 0.001 to 0.99 nM
COC(=O)N[C@H](C(=O)N1CCC[C@H]1c1nc2ccc3cc(-c4ccc5cc(-c6cnc([C@@H]7CCCN7C(=O)[C@H](NC(=O)OC)c7ccccc7)[nH]6)ccc5c4)ccc3c2[nH]1)C1CCOCC1 [Example 175] | 0.001 to 0.999 | 0.011 | 0.001 to 0.999 | 0.001 to 0.99 | 
CN(C)C(C(=O)N1CCC[C@H]1c1ncc(-c2ccc3cc(-c4ccc(-c5cnc([C@@H]6CCCN6C(=O)[C@H](C6CCOCC6)N(C)C)[nH]5)cc4)ccc3c2)[nH]1)c1ccccc1 (stereo partly shown) [Example 156] | 0.001 to 0.999 | 0.028 | 0.001 to 0.999 | 0.001 to 0.99 | 
COC(=O)N[C@H](C(=O)N1CCC[C@H]1c1nc2c([nH]1)COc1cc(-c3ccc4cc(-c5c[nH]c([C@@H]6CCCN6C(=O)[C@@H](c6ccccc6)N(C)C)n5)ccc4c3)ccc1-2)C1CCOCC1 [Example 182] | 0.001 to 0.999 | 0.05 | 0.001 to 0.999 | 0.001 to 0.99 | 
COC(=O)N[C@H](C(=O)N1CCC[C@H]1c1ncc(-c2ccc3cc(-c4ccc(-c5cnc([C@@H]6CCCN6C(=O)[C@@](C)(NC(=O)OC)c6ccccc6)[nH]5)cc4)ccc3c2)[nH]1)C(C)C [Example 163] | 1 to 44 | 0.031 | 1 to 44 | > 5 | 
COC(=O)N[C@H](C(=O)N1CCC[C@H]1c1ncc(-c2ccc3c(c2)CCc2cc(-c4ccc5nc([C@@H]6CCCN6C(=O)[C@H](NC(=O)OC)c6ccccc6)[nH]c5c4)ccc2-3)[nH]1)C(C)C [Example 189] | 0.001 to 0.999 | 0.006 | 0.001 to 0.999 | 0.001 to 0.99 | 
COC(=O)N[C@H](C(=O)N1CCC[C@H]1c1ncc(-c2ccc3cc(-c4ccc(-c5cnc([C@@H]6CCCN6C(=O)C6(NC(=O)OC)Cc7ccccc7C6)[nH]5)cc4)ccc3c2)[nH]1)C(C)C [Example 191] | 1 to 44 | 0.253 | > 44 | > 5 | 
COC(=O)N[C@H](C(=O)N1CCC[C@H]1c1ncc(-c2ccc(-c3ccc4cc(-c5cnc([C@@H]6C[C@H](C#N)CN6C(=O)[C@@H](c6ccccc6)N(C)C)[nH]5)ccc4c3)cc2)[nH]1)C(C)C [Example 118] | 0.001 to 0.999 | 0.027 | 0.001 to 0.999 | 0.001 to 0.99 | 
COC(=O)N[C@H](C(=O)N1CCC[C@H]1c1ncc(-c2ccc3cc(-c4ccc(-c5cnc([C@@H]6C[C@@H](F)CN6C(=O)[C@H](NC(=O)OC)c6ccccc6)[nH]5)cc4)ccc3c2)[nH]1)C(C)C [Example 140] |  |  |  |  | EC50 ([1]; RLuc reporter): 0.001 to 0.999 nM; EC50 [4, 11]: 0.001 to 0.99 nM
COC(=O)N[C@H](C(=O)N1CCC[C@H]1c1ncc(-c2ccc3cc(-c4ccc(-c5cnc([C@@H]6CCCN6C(=O)[C@H](NC(=O)OC(C)(C)C)c6ccccc6)[nH]5)cc4)ccc3c2)[nH]1)C(C)C [Example 186] | 0.001 to 0.999 | 0.004 | 0.001 to 0.999 |  | 
COC(=O)N[C@H](C(=O)N1CC2(C[C@H]1c1ncc(-c3ccc(-c4ccc5cc(-c6cnc([C@@H]7CCCN7C(=O)[C@H](NC(=O)OC)c7ccccc7)[nH]6)ccc5c4)cc3)[nH]1)OCCO2)C(C)C [Example 35] |  |  |  |  | EC50 [1, 5]: 0.001 to 0.999 nM; EC50 [2, 6]: 0.008 nM; EC50 [3, 5]: 0.001 to 0.999 nM; EC50 [4, 7]: 0.001 to 0.99 nM
COC(=O)N[C@H](C(=O)N1CCC[C@H]1c1ncc(-c2ccc3cc(-c4ccc(-c5cnc([C@@H]6CCCN6C(=O)C(c6ccc7c(c6)OCO7)N(C)C)[nH]5)cc4)ccc3c2)[nH]1)C(C)C (stereo partly shown) [Example 151] | 1 to 44 | 0.038 | 1 to 44 | 1 to 4.99 | 
COC(=O)N[C@H](C(=O)N1CCC[C@H]1c1ncc(-c2ccc(-c3ccc(-c4ccc(-c5cnc([C@@H]6CCCN6C(=O)[C@H](NC(=O)OC)c6ccccc6)[nH]5)cc4)cc3)cc2)[nH]1)C(C)C [Example 192] | 0.001 to 0.999 | 0.004 | 0.001 to 0.999 | 0.001 to 0.99 | 
COC(=O)N[C@H](C(=O)N1CCC[C@H]1c1ncc(-c2ccc3cc(-c4ccc(-c5cnc([C@@H]6CCCN6C(=O)[C@@H](NC(=O)OCc6ccccc6)C6CCSCC6)[nH]5)cc4)ccc3c2)[nH]1)C(C)C [Example 276] |  |  |  |  | EC50 ([1]; RLuc reporter): > 44 nM; EC50 ([3]; RLuc reporter): > 44 nM
COC(=O)NC(C(=O)N1C[C@H](C)C[C@H]1c1ncc(-c2ccc(-c3ccc4cc(-c5cnc([C@@H]6CCCN6C(=O)[C@@H](NC(=O)OC)C(C)C)[nH]5)ccc4c3)cc2)[nH]1)c1cnccn1 (stereo partly shown) [Example 255] | 0.001 to 0.999 | 0.015 | 1 to 44 |  | 
COC(=O)N[C@H](C(=O)N1CCC[C@H]1c1ncc(-c2ccc3c(c2)CCc2cc(-c4cnc([C@@H]5CCCN5C(=O)C(c5ccccc5)N(C)C)[nH]4)ccc2-3)[nH]1)C(C)C (stereo partly shown) [Example 190] |  |  |  | 0.001 to 0.99 | 
COC(=O)NC(C(=O)N1C[C@H](C)C[C@H]1c1ncc(-c2ccc(-c3ccc4cc(-c5cnc([C@@H]6CCCN6C(=O)[C@@H](NC(=O)OC)C6CCOCC6)[nH]5)ccc4c3)cc2)[nH]1)c1cnccn1 (stereo partly shown) [Example 254] | 0.001 to 0.999 | 0.077 | 0.001 to 0.999 |  | 
COC(=O)NC(C(=O)N1CCC[C@@H]1c1ncc(-c2cc3c4c(c2)OCc2cc(-c5cnc([C@H]6CCCN6C(=O)[C@@H](NC(=O)OC)C(C)C)[nH]5)cc(c2-4)OC3)[nH]1)C(C)C (stereo partly shown) [Example 11] |  |  |  |  | EC50 [1, 12]: 1 to 44 nM; EC50 [2, 6]: 0.258 nM; EC50 [3, 12]: 0.001 to 0.999 nM
